Data set [1] concerns murine mammary carcinoma 4T1 cells. Put plainly: Photosensitizer-mediated PDT, in vitro proliferation (MTT), 4T1. Particulars: Table 8a, 10 μg/mL; for viability at 10 µg/mL: Mus musculus, light or radiation study, 8 J/cm^2, read-out: cell viability (%), +8 J/cm^2; for viability at 10 µg/mL / cell viability (%), +8 J/cm^2: 660 nm. It is filed as cell-based. The protocol:
(§1) Several kinds of tumor cells (human cervical cancer Hela cells, human hepatocellular carcinoma huh-7 cells and murine mammary carcinoma 4T1 cells) cultured in vitro from a variety of tissues were taken as cell models, so as to investigate the photodynamic effects mediated by different doses of CEFN, CEFO, Ce6 and HPPH on the three different tumor cells (n=3). The specific experimental procedures were carried out as follows.
(§2) Cells in the logarithmic growth phase were harvested and seeded in a 24-well plate. After growing to a confluence of 70-80%, the cells were randomly divided into a control group (free of drug and light irradiation), a drug group and a photodynamic group. The CEFN, CEFO, Ce6 and HPPH were added respectively in dark, and for each drug, four final concentrations 1, 2, 5, and 10 μg/mL were set with 3 replicates for each group. After the co-incubation, the groups were treated individually. Regarding the photodynamic group, the light irradiation was performed at a wavelength of 660 nm and three different light intensities, i.e., 2, 4 and 8 J/cm^2. After that, each group was digested, and were inoculated into a 96-well plate at 100 μL per well with 4 replicates for each treatment. 24 hours later, the 96-well plate was subjected to MTT assay as follows. Each well was added with 20 μL of MTT (3-4,5-dimethylthiazol-2,5-diphenyltetrazolium bromide) solution in the dark and incubated for 4 hours. The supernatant was discarded, and the residue was dissolved with 150 μL of dimethyl sulfoxide for 15 min. After that, the 96-well plate was measured by a microplate reader for the absorbance (OD value). The relative cell viability was calculated as follows: relative cell viability=OD value of experimental group/OD value of control group*100%.
(§3) In this experiment, photodynamic effect mediated by the compounds (except CEFO and CEFN) in different Examples of this disclosure on the murine mammary carcinoma 4T1 cells was investigated. The experimental procedures are carried out as follows. Cells in the logarithmic growth phase were harvested and seeded in a 24-well plate. After growing to a confluence of 70-80%, the cells were randomly divided into multiple photodynamic groups and multiple no-light control groups. The compounds (as shown in Table 8a) with a final concentration of 10 μg/mL were added to each group respectively in dark with 3 replicates for each group, so as to co-incubate the cells with the drug. Regarding the multiple photodynamic groups, the light irradiation was performed at a wavelength of 660 nm and the light intensity of 8 J/cm^2. After that, each group was digested, and were inoculated into a 96-well plate at 100 μL per well with 4 replicates for light treatment and no light treatment. 24 hours later, the 96-well plate was measured by MTT assay as follows. Each well was added with 20 μL of MTT (3-4,5-dimethylthiazol-2,5-diphenyltetrazolium bromide) solution in the dark and incubated for 4 hours. The supernatant was discarded, and the residue was dissolved with 150 μL of dimethyl sulfoxide for 15 min. After that, the 96-well plate was measured by a microplate reader for the absorbance (OD value). The relative cell viability of the murine mammary carcinoma 4T1 cells was calculated as follows according to the measured absorbance (OD value) in each group: relative cell viability=OD value of experimental group/OD value of control group*100%.

Experiment in data set [2]: as above
It is filed as cell-based, murine. Particulars: mouse, 4T1 cells, Table 8a, 10 μg/mL, no light, read-out: cell viability (%), No light. The protocol: as §1, §2, §3

For the molecule `CCCCNCc1c(C)c2cc3nc(c(C)c4[nH]c(cc5nc(cc1[nH]2)C(C)=C5CC)c(C)c4C(=O)O)[C@@H](CCC(=O)O)[C@@H]3C` [Example 27], in data set [1], the viability at 10 µg/mL is 6 ± 2%. Besides, in data set [2], the viability at 24 h, 10 μg/mL was found to be 103 ± 3%.
Taken in the same sequence, the figures for `CCCNCc1c(C)c2cc3nc(c(C)c4[nH]c(cc5nc(cc1[nH]2)C(C)=C5CC)c(C)c4C(=O)O)[C@@H](CCC(=O)O)[C@@H]3C` [Example 28] were 7 ± 4% and 104 ± 1%.
Turning to `CCCCCCCCCCCNCc1c(C)c2cc3nc(c(C)c4[nH]c(cc5nc(cc1[nH]2)C(C)=C5CC)c(C)c4C(=O)O)[C@@H](CCC(=O)O)[C@@H]3C` [Example 21], in data set [1], the viability at 10 µg/mL is 9 ± 2%. Also, the viability at 24 h, 10 μg/mL in data set [2] was found to be 101 ± 1%.
For the molecule `CCCCCCCCCCNCc1c(C)c2cc3nc(c(C)c4[nH]c(cc5nc(cc1[nH]2)C(C)=C5CC)c(C)c4C(=O)O)[C@@H](CCC(=O)O)[C@@H]3C` [Example 22], the viability at 10 µg/mL in data set [1] turned out to be 10 ± 4%. For the same molecule, in data set [2], the viability at 24 h, 10 μg/mL was 99 ± 2%.
On to `CCCCCCNCc1c(C)c2cc3nc(c(C)c4[nH]c(cc5nc(cc1[nH]2)C(C)=C5CC)c(C)c4C(=O)O)[C@@H](CCC(=O)O)[C@@H]3C` [Example 16, 3-n-hexylaminomethyl-3-devinyl-chlorin e4], for which, in data set [1], the “cell viability (%), +8 J/cm^2” value is recorded as 7 ± 5% and the “cell viability (%), No light” value worked out at 103 ± 3%.
Turning to `CCCCCCCCNCc1c(C)c2cc3nc(c(C)c4[nH]c(cc5nc(cc1[nH]2)C(C)=C5CC)c(C)c4C(=O)O)[C@@H](CCC(=O)O)[C@@H]3C` [Example 24], the viability at 10 µg/mL in data set [1] amounted to 9 ± 5%. Also, in data set [2], the viability at 24 h, 10 μg/mL came out at 100 ± 2%.
Taken in the same sequence, the figures for `CCCCCNCc1c(C)c2cc3nc(c(C)c4[nH]c(cc5nc(cc1[nH]2)C(C)=C5CC)c(C)c4C(=O)O)[C@@H](CCC(=O)O)[C@@H]3C` [Example 26] were 6 ± 5% and 102 ± 1%.
Turning to `CCCCCCCCCCCOCc1c(C)c2cc3nc(c(C)c4[nH]c(cc5nc(cc1[nH]2)C(C)=C5CC)c(C)c4C(=O)O)[C@@H](CCC(=O)O)[C@@H]3C` [Example 6], in data set [1], the “cell viability (%), +8 J/cm^2” value came out at 4 ± 3% and the “cell viability (%), No light” value was 102 ± 2%.
In the case of `CCCCCCCCCCCCNCc1c(C)c2cc3nc(c(C)c4[nH]c(cc5nc(cc1[nH]2)C(C)=C5CC)c(C)c4C(=O)O)[C@@H](CCC(=O)O)[C@@H]3C` [Example 20], the viability at 10 µg/mL in data set [1] was 6 ± 3%. Besides, the viability at 24 h, 10 μg/mL in data set [2] came to 104 ± 1%.
Turning to `CCCCCCCNCc1c(C)c2cc3nc(c(C)c4[nH]c(cc5nc(cc1[nH]2)C(C)=C5CC)c(C)c4C(=O)O)[C@@H](CCC(=O)O)[C@@H]3C` [Example 25], the viability at 10 µg/mL in data set [1] amounted to 5 ± 3%. In data set [2], the viability at 24 h, 10 μg/mL was 100 ± 2%.
In the case of `CCCCCCOCc1c(C)c2cc3nc(c(C)c4[nH]c(cc5nc(cc1[nH]2)C(C)=C5CC)c(C)c4C(=O)O)C(CCC(=O)O)C3C` (stereo not drawn) [Example 1, 3-hexyloxymethyl-3-devinyl-chlorin e4], in data set [1], the “cell viability (%), +8 J/cm^2” value came to 2 ± 5% and the “cell viability (%), No light” value is recorded as 103 ± 1%.
In the case of `CCCCCCCCCNCc1c(C)c2cc3nc(c(C)c4[nH]c(cc5nc(cc1[nH]2)C(C)=C5CC)c(C)c4C(=O)O)[C@@H](CCC(=O)O)[C@@H]3C` [Example 23], the viability at 10 µg/mL in data set [1] came to 8 ± 5%. The viability at 24 h, 10 μg/mL in data set [2] amounted to 102 ± 2%.

The values are drawn from patent publication US11787816B2, “Chlorin compound, and preparation and use thereof” (Southwest Jiaotong University, priority 2021, dated 2023).
